Where two headings read alike, the source gives them in different places.
What was measured:
LDL-r promoter = LDL-r promoter luciferase reporter gene assay in stably transfected HepG2 cells; assay type: cell-based, human; details: HepG2 cells with LDL-r promoter/luciferase construct, 24 hours incubation in RPMI with 2% lipoprotein-deficient serum, induction of luciferase activity, read-out: In vitro (IC50)
Method: The ability of the compounds of the invention to induce LDL-r expression by human hepatocytes in vitro is determined using a human hepatocarcinoma cell line, Hep G2, as a model system. A reporter gene assay using the LDL-R promotor in front of the Luciferase reporter gene is used as a primary screen.
HepG2 cells, stably transfected with a construct comprising the LDL-r promoter and the luciferase reporter gene, were seeded at 50.000 cells/well in 96 well plates. After 1 day, cells were incubated with compounds for 24 hours in RPMI medium containing 2% of lipoprotein-deficient serum. Compounds were tested from 10^−6M to 10^−9M. Cell lysates were prepared and the luciferase activity was measured by the luciferase assay system (Promega). Induction of luciferase activity was calculated taking untreated cells as control and ED50 of each compounds was determinated compared to the ED50 of an internal standart.

| Compound | melting point | EC50 (LDL-r promoter) | EC50 (LDL-r promoter; Homo sapiens) |
| --- | --- | --- | --- |
| COc1ccc(C2CCN(CCCCNC(=O)c3ccc(NC(=O)c4ccc(Cl)cc4)cc3)CC2)c(OC)c1.Cl | 238 °C |  |  |
| CCOc1cc(C)ccc1C1CCN(CCCCNS(=O)(=O)c2ccc(-c3ccc(C(F)(F)F)cc3)cc2)CC1.Cl | 188 to 190 °C |  |  |
| COc1cc(C)ccc1N1CCN(CCCCNC(=O)c2ccc(NC(=O)c3ccc(Cl)cc3)cc2)CC1.Cl (hydrate or solvate) | 227 °C |  |  |
| CCOc1cc(C)ccc1C1CCN(CCCCNC(=O)c2ccc(NC(=O)c3ccc(Cl)cc3)cc2)CC1 [Example 2, 4-(4-chloro-benzoylamino)-N-{4-[4-(2-ethoxy-4-methyl-phenyl)-piperidin-1-yl]-butyl}-benzamide] | 254 °C |  |  |
| CCOc1cc(CC)ccc1C1CCN(CCCCNC(=O)c2ccc(NC(=O)c3ccc(Cl)cc3)cc2)CC1 [Example 3, 4-(4-chloro-benzoylamino)-N-{4-[4-(2-ethoxy-4-ethyl-phenyl)-piperidin-1-yl]-butyl}-benzamide] | 250 °C |  |  |
| CCc1ccc(C2CCN(CCCCNC(=O)c3ccc(NC(=O)c4ccc(Cl)cc4)cc3)CC2)c(OC)c1 [Example 4, 4-(4-chloro-benzoylamino)-N-{4-[4-(4-ethyl-2-methoxy-phenyl)-piperidin-1-yl]-butyl}-benzamide] | 235 °C |  |  |
| COc1cc(C(C)C)ccc1C1CCN(CCCCNC(=O)c2ccc(NC(=O)c3ccc(Cl)cc3)cc2)CC1 [Example 5, 4-(4-chloro-benzoylamino)-N-{4-[4-(4-isopropyl-2-methoxy-phenyl)-piperidin-1-yl]-butyl}-benzamide] | 241 °C |  |  |
| CCOc1cc(C(C)C)ccc1C1CCN(CCCCNC(=O)c2ccc(NC(=O)c3ccc(Cl)cc3)cc2)CC1 [Example 6, 4-(4-chloro-benzoylamino)-N-{4-[4-(2-ethoxy-4-isopropyl-phenyl)-piperidin-1-yl]-butyl}-benzamide] | 242 °C |  |  |
| Cc1cc(C2CCN(CCCCNC(=O)c3ccc(-c4ccc(C(F)(F)F)cc4)cc3)CC2)c(C)cc1OCc1ccccn1 [Example 7] |  | 4 nM |  |
| O=C(NCCCCN1CCC(c2ccc3c(c2)OCO3)CC1)c1ccc(NC(=O)c2ccc(Cl)cc2)cc1 [Example 8, 4-(4-chloro-benzoylamino)-N-[4-(4-benzo[1,3]dioxol-5-yl-piperidin-1-yl]-butyl}-benzamide] | 238 to 248 °C |  |  |
| O=C(NCCCCN1CCC(c2ccc3ccccc3c2)CC1)c1ccc(NC(=O)c2ccc(Cl)cc2)cc1 [Example 9, 4-(4-chloro-benzoylamino)-N-[4-(4-naphthalen-2-yl-piperidin-1-yl]-butyl}-benzamide] | 270 °C |  |  |
| O=C(NCCCCN1CCC(c2ccc3c(c2)CCCC3)CC1)c1ccc(NC(=O)c2ccc(Cl)cc2)cc1 [Example 10, 4-(4-chloro-benzoylamino)-N-{4-[4-(5,6,7,8-tetrahydro-naphthalen-2-yl)-piperidin-1-yl]-butyl}-benzamide] | 285 °C |  |  |
| O=C(NCCCCN1CCC(c2cccc3ccccc23)CC1)c1ccc(NC(=O)c2ccc(Cl)cc2)cc1 [Example 11, 4-(4-chloro-benzoylamino)-N-[4-(4-naphthalen-1-yl-piperidin-1-yl]-butyl}-benzamide] | 264 °C |  |  |
| CSc1ccccc1C1CCN(CCCCNC(=O)c2ccc(-c3ccc(C(F)(F)F)cc3)cc2)CC1 [Example 13, 4′-Trifluoromethyl-biphenyl-4-carboxylic acid {4[4-(2-methylsulfanyl-phenyl)-piperidin-1-yl]-butyl}-amide] | 191 to 192 °C |  |  |
| Cn1cc(C2CCN(CCCCNC(=O)c3ccc(-c4ccc(C(F)(F)F)cc4)cc3)CC2)c2ccccc21 [Example 14, 4′-Trifluoromethyl-biphenyl-4-carboxylic acid {4-[4-(1−methyl-1H-indol-3-yl)-piperidin-1-yl]-butyl}-amide] | 205 to 206 °C |  |  |
| O=C(NCCCCN1CCC(c2csc3ccccc23)CC1)c1ccc(-c2ccc(C(F)(F)F)cc2)cc1 [Example 16, 4′-Trifluoromethyl-biphenyl-4-carboxylic acid [4-(4-benzo[b]thiophen-3-yl-piperidin-1-yl)-butyl]-amide] | 264 °C |  |  |
| CCOc1cc(C)ccc1NC1CCN(CCCCNC(=O)c2ccc(-c3ccc(C(F)(F)F)cc3)cc2)CC1 [Example 19, 4′-Trifluoromethyl-biphenyl-4-carboxylic acid {4-[4-(2-ethoxy-4-methyl-phenylamino)-piperidin-1-yl]-butyl}-amide] | 162 °C |  |  |
| CCOc1cc(C)ccc1N(C1CCN(CCCCNC(=O)c2ccc(-c3ccc(C(F)(F)F)cc3)cc2)CC1)S(=O)(=O)c1ccccc1 [Example 20, 4′-Trifluoromethyl-biphenyl-4-carboxylic Acid (4-{4-[benzenesulfonyl-(2-ethoxy-4-methyl-phenyl)-amino]-piperidin-1-yl}butyl)-amide] | 110 °C |  | 117 nM |
| CCOc1cc(C)ccc1C1CCN(CCCCC(=O)Nc2ccc(-c3ccc(C(F)(F)F)cc3)cc2)CC1 [Example 24, 5-[4-(2-Ethoxy-4-methyl-phenyl)-piperidin-1-yl]-pentanoic acid (4′-trifluoromethyl-biphenyl-4-yl)-amide] | 178 °C |  |  |
| COc1c(C2CCN(CCCCOc3ccc(-c4ccc(C#N)cc4)cc3)CC2)ccc2ccccc12 [Example 26, 4′-{4-[4-(1-Methoxy-naphtalen-2-yl)-piperidin-1-yl]-butoxy}-biphenyl-4-carbonitrile] |  | 1 nM |  |

The next lines start with the values.

| melting point | EC50 (LDL-r promoter) | EC50 (LDL-r promoter; Homo sapiens) | Compound |
| --- | --- | --- | --- |
| 170 °C |  |  | COc1cc(C(C)C)ccc1C1CCN(CCCCNC(=O)c2sc(-c3ccc(C(F)(F)F)cc3)nc2C)CC1 [Example 27, 4-Methyl-2-(4-trifluoromethyl-phenyl)-thiazole-5-carboxylic acid {4-[4-(4-isopropyl-2-methoxy-phenyl)-piperidin-1-yl]-butyl}-amide] |
| 174 to 175 °C |  |  | CCOc1cc(C)ccc1C1CCN(CCCCNC(=O)c2ccc3c(c2)cc(-c2ccc(Cl)cc2)n3C)CC1 [Example 28, 2-(4-Chloro-phenyl)-1-methyl-1H-indole-5-carboxylic Acid {4-[4-(2-ethoxy-4-methyl-phenyl)-piperidin-1-yl]-butyl}-amide] |
| 200 °C |  |  | CCOc1cc(C)ccc1C1CCN(CCCCNC(=O)c2ccc3oc(-c4ccc(C(F)(F)F)cc4)cc3c2)CC1 [Example 29, 2-(4-Trifluoromethyl-phenyl)-benzofuran-5-carboxylic Acid {4-[4-(2-ethoxy-4-methyl-phenyl)-piperidin-1-yl]-butyl}-amide] |
| 145 to 158 °C |  |  | CCOc1cc(C)ccc1C1CCN(CCCCNC(=O)c2ccc3oc(-c4ccc(Cl)cc4)cc3c2)CC1 [Example 30, 2-(4-Chloro-phenyl)-benzofuran-5-carboxylic acid {4-[4-(2-ethoxy-4-methylphenyl)-piperidin-1-yl]-butyl}-amide] |
|  | 20 nM |  | O=C(NCCCCN1CCC(c2ccc3c(c2OCC2CC2)CCCC3)CC1)c1ccc2oc(-c3ccc(Cl)c(Cl)c3)cc2c1 [Example 31, 2-(3,4-Dichloro-phenyl)-benzofuran-5-carboxylic acid {4-[4-(1-cyclopropylmethoxy-5,6,7,8-tetrahydro-naphtalen-2-yl)-piperidin-1-yl]-butyl}-amide] |
|  | 13 nM |  | O=C(NCCCCN1CCC(c2ccc3c(c2OCC2CC2)CCCC3)CC1)c1ccc2oc(-c3ccc(C(F)(F)F)nc3)cc2c1 [Example 32, 2-(6-Trifluoromethyl-pyridin-3-yl)-benzofuran-5-carboxylic acid {4-[4-(1-cyclopropylmethoxy-5,6,7,8-tetrahydronaphtalen-2-yl)-piperidin-1-yl]-butyl}-amide] |
| 210 °C |  | 30 nM | CCOc1cc(C)ccc1C1CCN(CCCCNC(=O)c2ccc(C=Cc3ccc(C(F)(F)F)cc3)cc2)CC1 [Example 33, N-{4-[4-(2-Ethoxy-4-methyl-phenyl)-piperidin-1-yl]-butyl}-4-[2-(4-trifluoromethylphenyl)-vinyl]-benzamide] |
| 180 to 182 °C |  |  | CCOc1cc(C)ccc1C1CCN(CCCCNC(=O)c2ccc(OCc3ccc(C(F)(F)F)cc3)cc2)CC1 [Example 34, N-{4-[4-(2-Ethoxy-4-methyl-phenyl)-piperidin-1-yl]-butyl}4-(4-trifluoromethyl-benzyloxy)-benzamide] |
| 136 to 137 °C |  |  | CCOc1ccc(CC2CCN(CCCCNC(=O)c3ccc(-c4ccc(C(F)(F)F)cc4)cc3)CC2)c(OCC)c1 [Example 38, 4′-trifluoromethyl-biphenyl-4-carboxylic acid {4-[4-(2,4-diethoxy-benzyl)-piperidin-1-yl]-butyl}amide] |
| 180 °C |  | 10 nM | Cn1cc(C2CCN(CCCCNC(=O)c3ccc(-c4ccc(C#N)cc4)cc3)CC2)c2ccccc21 [Example 40, 4′-Cyano-biphenyl-4-carboxylic acid {4-[4-(1-methyl-1H-indol-3-yl)-piperidin-1-yl]-butyl}-amide] |

Reference: patent publication US20040077654A1, “Aryl piperidine and piperazine derivatives as inducers of ldl-receptor expression” (priority 2003, published 2004)
